Assay results taken from patent publication US20200140951A9, “Transcriptional system and uses thereof for single cell detection” (Université Laval, priority 2017, published 2020).
Several values for one entry are separate records, joined by “and”; a condition that tells them apart may be missing. Identical values can stand only once.

Columns and labels:
[1] = tested on: AR activity in LAPC4-GFP single cells; assay: Single cell treatment response, PSEBC-TSTA bioluminescence microscopy; format: cell-based; details: for cells with decrease in fl activity / cells with increase in fl activity: n=10 cells, 48 h treatment, DHT 1 nM or DHT+Enz 1 nM+10 μM
Procedure: Forty-eight hours post-infection, the cells were imaged after D-luciferin addition. […] GFP biofluorescence imaging was then performed every 5 h to track the cells. After 48 hours of treatment, luciferase imaging was repeated to determine the change in fl expression. […] The corresponding cells tracked and imaged by biofluorescence microscopy is also shown. […] LAPC4-GFP cells were infected with PCA3-3STA, treated and imaged as described in (A). (D) Upper panel: Scheme of the method used to isolate and image spiked PCa cells from blood. […] Every 5 h, GFP biofluorescence imaging was performed to track the cells. At 48 h, luminescence imaging was repeated to determine single cell fl expression changes. Lower panels: Biofluorescence and bioluminescence images of blood spiked-LAPC4-GFP cells transduced with PSEBC-TSTA after PCa cell isolation. (E) Bioluminescence microscopy quantification of single cell responses to AR-antagonists after PSEBC-TSTA transduction of PCa spiked cells (LAPC4-GFP). Relative grey intensity=((sum grey intensity per ROI−sum grey intensity of background)÷sum grey intensity at 0 h)×100. Data represent technical triplicates±SD.
Forty-eight hours after infection, the cells were imaged by adding D-luciferin and an exposure time of 15 secs per image under bioluminescence microscopy. […] GFP biofluorescence imaging was performed every 5 h to track the cells. After 48 hours, luminescence imaging was performed again on the same cells to determine the changes in fl activity. Relative grey intensity was quantified for n=10 cells in each treatment condition before and after treatment. Relative grey intensity=((sum grey intensity per ROI−sum grey intensity of background)÷sum grey intensity at 0 h)×100. Each ROI defines a single cell.
To track the change in position and growth of single cells in which fl activity was measured, biofluorescence microscopy imaging was performed every 5 h for 48 h (GFP-positive cells) after which time bioluminescence imaging and quantification were repeated on the same cells. Sum grey intensity was then determined for single cells before and after treatment using the cellSens soft-ware. Relative grey intensity=((sum grey intensity per ROI−sum grey intensity of background)÷sum grey intensity at 0 h)×100.

[2] = tested on: AR transcriptional activity in PCa cells from urine/bladder wash of patients
From the text: (A) & (B) Images show the H&E staining and IHC using anti-PSA for castration sensitive prostate cancer (CSPC) and castration resistance prostate cancer (CRPC) patients, case 9 and 11 respectively. (C), (D), (E) & (F) Graphs show single cell response to treatment detected with PCA3-Cre-PSEBC-ITSTA in PCa cells from case 9 and 11. Urine/bladder wash from patients post-DRE was sampled and spun down to collect all the cells. These cells were infected with 5×10^5 virus particles of PCA3-Cre-PSEBC-ITSTA. […] Forty-eight hours post treatment imaging was repeated to assess response on the same cells to determine change in expression. Relative grey intensity=((sum grey intensity per ROI−sum grey intensity of background)÷ sum grey intensity at 0 h)×100).
(D) Images show the H&E staining and IHC using anti-PSA for castration resistance prostate cancer (CRPC) patients 11. […] Urine or bladder wash from patients was sampled and spun down to collect all the cells. These cells were infected with 5×10^5 virus particles of PCA3-Cre-PSEBC-ITSTA. […] Forty-eight hours post treatment imaging was repeated to assess response on the same cells.
Forty-eight hours later, single cell bioluminescence was measured again. Single cell response to antiandrogen was determined and cells were considered as resistant if luciferase activity increased despite antiandrogen treatment.
Forty-eight hours post-treatment, single cell bioluminescence was measured again. For case 22, sampling was done as a naïve state before any treatment was received. Similar analysis as cell lines was performed.
The above described procedure for isolation was used to isolate cells from these samples. The samples were then infected with 5×10^5 ivp of PCA3-Cre-PSEBC-TSTA-fl adenovirus. […] Forty-eight hours later, bioluminescence imaging was repeated on the same cells. Percentage of targeted cells=(number bioluminescence positive cells÷number m-cherry positive cells)×100. The sum of gray intensity values was determined for single cells before and after treatment using CellSens software. Relative gray intensity=((sum gray intensity per ROI−sum gray intensity of background)÷sum gray intensity at 0 h)×100).

[3] = tested on: AR transcription in LNCaP-GFP cells; assay: Single cell treatment response of spiked cells isolated from blood, PSEBC-TSTA; format: cell-based; details: DHT+Enz 1 nM+10 μM; 48 h
Procedure: FIG. 15 LNCaP cells displaying greater cell-to-cell AR-transcriptional homogeneity upon treatment when compared to LAPC4 cells. […] Forty-eight hours after infection, the cells were imaged after an exposure time of 15 secs per image under bioluminescence microscopy. […] Biofluorescence microscopy imaging was performed for each well for 48 h, with images taken every 5 h to track the cells. Luciferase imaging was performed again on the same cells to determine the change in fl expression.
Blood was collected from a healthy donor and placed in a heparin-coated tube. This study was approved by the Institutional Review Board of the CHU de Quebec Hospital, Quebec, QC, Canada. Informed consent was obtained by the donor for blood sampling. All experiments were performed in accordance with relevant guidelines and regulations. LAPC4 and LNCaP cells were added to the blood sample (500 cells/3 ml of blood), followed by a custom-made RosetteSep cocktail ([…] Technologies, Vancouver, BC, Canada) at a volume of 50 μl per ml. The sample was gently mixed and incubated thereafter at room temperature for 20 min. Fifteen milliliters of Ficoll-Paque Plus (GE healthcare Life Sciences, Mississauga, ON, Canada) were then placed in a 50 ml SepMate tube ([…] Technologies) 31 and blood was poured gently along the walls of the tube onto the Ficoll layer. […]

[4] = tested on: 22Rv1 cells; assay: Viability assay (resazurin); format: cell-based; details: DHT 1 nM + antiandrogen 10 μM
Procedure: (§1) LAPC4, and 22Rv1 cells were seeded. […] The cells proliferation was measured using resazurin. Relative cell count=(Fluorescence at each time point÷fluorescence at 0 h). Data represents technical triplicates±SD.

[5] = tested on: LAPC4 cells; assay: Viability assay (resazurin); format: cell-based; details: DHT 1 nM + antiandrogen 10 μM
Procedure: as §1

[6] = tested on: 22Rv1 cells; assay: Growth curves of PCa cells (cell counter); format: cell-based; details: DHT 1 nM + antiandrogen 10 μM; six days of culture
Procedure: The cells were trypsinized and counted using a cell counter after six days of culture. Relative cell count=number of cells at each time point÷number of cells at 0 h. Data represent technical triplicates±SD.

[7] = tested on: AR transcriptional activity in LAPC4-GFP cells; details: 48 h
Procedure: (§2) (A) Scheme for targeting spiked PCa cells from urine. (B) PCa cells (22Rv1 stably expressing mCherry) were spiked in the urine of an healthy individual. […] Seventy-two hours after infection the cells were imaged by adding D-luciferin substrate and with an exposure time of 5 min per image using the bioluminescence microscope. […] Urine samples from healthy patients were spiked with 250 PCa cells stably expressing GFP (22Rv1-GFP or LAPC4-GFP). Urine was spun down to collect all the cells. These cells were infected with 5×10^5 virus particles of PCA3-Cre-PSEBC-ITSTA. […] Forty-eight hours post treatment imaging was repeated to assess response on the same cells to determine change in luciferase expression. Relative grey intensity=((sum grey intensity per ROI−sum grey intensity of background)÷sum grey intensity at 0 h)×100).
(§3) Urine samples from healthy patients were spiked with 250 PCa cells stably expressing GFP (22Rv1-GFP or LAPC4-GFP). Urine was spun down to collect all the cells. These cells were infected with 5×10^5 virus particles of PCA3-Cre-PSEBC-ITSTA. […] Forty-eight hours post treatment imaging was repeated to assess response on the same cells to determine change in luciferase expression. Relative grey intensity=((sum grey intensity per ROI−sum grey intensity of background)÷sum grey intensity at 0 h)×100).

[8] = tested on: AR transcriptional activity in 22Rv1-GFP cells; details: DHT 1 nM + antiandrogen 10 μM; 48 h
Procedure: as §2, §3

Structure (SMILES) | induction of sum of fl activity of ten single cells ([1]; DHT 1 nM, 48 h) | cells with decrease in fl activity [1] | cells with increase in fl activity [1] | cells with decrease in PSEBC activity [2] | single cell AR transcriptional response pattern [3] | effect on DHT induction of sum of fl activity of ten single cells ([1]; DHT 1 nM + antiandrogen 10 μM, 48 h) | growth inhibition (resazurin proliferation) [4] | growth inhibition (resazurin proliferation) [5] | growth inhibition (relative cell count) [6] | cells with decrease in luciferase activity ([7]; DHT 1 nM + Bic 10 μM) | cells with increase in luciferase activity ([7]; DHT 1 nM + Bic 10 μM) | percentage of cells with increased activity relative to DHT treated group ([7]; DHT 1 nM + antiandrogen 10 μM) | percentage of cells with increased activity relative to DHT treated group [8] | cells with increase in fl expression [2] | level of AR activity of AR active cells (relative mean luminescence activity per cell) [2] | urine PCa cells with increase in PSEBC promoter dependent fl activity compared to DHT only group [2] | urine tumor cells AR active (relative fraction of AR active cells) [2]
C[C@]12CCC(=O)C[C@@H]1CC[C@@H]1[C@@H]2CC[C@]2(C)[C@@H](O)CC[C@@H]12 [DHT, dihydrotestosterone] | 8.8 fold | 20% | 80% | 60% | – | – | – | – | – | – | – | – | – | – | – | – | –
CNC(=O)c1ccc(N2C(=S)N(c3ccc(C#N)c(C(F)(F)F)c3)C(=O)C2(C)C)cc1F [Enz, enzalutamide] | – | 70% | 30% | – | homogeneous response | inhibited | did not display inhibited growth | displayed inhibited growth | – | – | – | – | – | – | – | – | –
CC(O)(CS(=O)(=O)c1ccc(F)cc1)C(=O)Nc1ccc(C#N)c(C(F)(F)F)c1 (centres unmarked) [Bic, bicalutamide] | – | – | – | 80% and 60% | – | – | – | – | not inhibited | 60% | 40% | 14% | 114% | 50% | 418.5% | 44% and 67% | 63%
